Data as given in patent US8022029B2, “Fabric softening compositions comprising polymeric materials” (priority 2007, dated 2011).

Legend:
[1] = Proportion of perfume extracted from esterquat aggregates to polymeric material fibers (dosing by HPLC); type: physicochemical; settings: 16 hours
Experimental: (§1) The capsules were then reformulated with a copolymer of polyether and polyurethane-polyurea (commercially available as Lycra) polymeric fiber material. […] The containers were shacked for 16 hours to allow the systems to equilibrate. The polymeric material was then removed, and the esterquat was tested for perfume molecule content (via dosing by HPLC).

[2] = type: physicochemical
Experimental: as §1
(§2) Polystyrene cross-linked with divinyl benzene was explored as the polymeric material. The partition coefficient of perfume molecules between such cross-linked polystyrene coated with an aminoplast shell (commercially available as Serdolit III) and esterquat was evaluated.

[3] = type: physicochemical; remark: listed apart in the source
Experimental: as §2

[4] = Table 4; cited from earlier work
[5] = 1.0 g polymeric material in 100 g softener (3.6% esterquat, 0.38% perfume)
[6] = 3.1 g polymeric material in 100 g softener (3.6% esterquat, 0.38% perfume)
[7] = 5.0 g polymeric material in 100 g softener (3.6% esterquat, 0.38% perfume)

With `C=CCc1ccc(O)c(OC)c1` [Eugenol, eugenol] as the molecule, how does the “proportion of perfume absorbed by the polymeric material” value (from here on “proportion of perfume absorbed”) [1, 5] read?
The value was 0.24.

What about the “proportion of perfume absorbed” value [1, 6] of the same molecule?
The value was 0.45.

What about the “proportion of perfume absorbed” value [1, 7] of the same molecule?
The value was 0.57.

And the “Partition Coefficient of Copolymer of polyether and polyurethane” value [2]?
Its value is 1.0.

And the “Partition Coefficient of Polystyrene Material” value [3]?
The value was 6.7.

With `CCCCCCOC(=O)c1ccccc1O` [Hexyl Salicylate, hexyl salicylate] as the molecule, how does the “proportion of perfume absorbed” value [1, 5] read?
The value was 0.34.

And the “proportion of perfume absorbed” value [1, 6]?
Its value is 0.63.

And the “proportion of perfume absorbed” value [1, 7]?
The value was 0.69.

What about the “Partition Coefficient of Copolymer of polyether and polyurethane” value [2] of the same molecule?
Its value is 1.4.

And the “Partition Coefficient of Polystyrene Material” value [3]?
The value was 6.7.

And the “Log P” value [4]?
The value was 5.26.

For `C=CC(C)(O)CCC=C(C)C` (stereo not shown) [Linalool, linalool], which “Log P” value [4] is on record?
The value was 2.43.

For `CC(C)=CCC/C(C)=C\CO` [Nerol, nerol], which “Log P” value [4] is on record?
The value was 2.65.

Which results are given for `CC(CCO)CCc1ccccc1` (stereo not shown) [Phenyl Hexanol, phenyl hexanol]?
proportion of perfume absorbed by the polymeric material [1, 5]: 0.26; proportion of perfume absorbed by the polymeric material [1, 6]: 0.51; proportion of perfume absorbed by the polymeric material [1, 7]: 0.60
